Assay results reported in ChEMBL document CHEMBL5126555, “Targeting breast cancer resistance protein (BCRP/ABCG2): Functional inhibitors and expression modulators” (Eur J Med Chem, 2022).
Each block holds one molecule with its values, some of them ahead of it.

What was measured:
[1] = target: T1, Broad substrate specificity ATP-binding cassette transporter ABCG2 (Homo sapiens, UniProt Q9UNQ0); assay: Inhibition of ABCG2 (unknown origin) expressed in human HEK293 cells mediated mitoxantrone efflux assessed as intracellular mitoxantrone level and measured after 30 mins by FACSflow cytometry analysis; assay type: cell-based
T1 sequence (Q9UNQ0 whole entry): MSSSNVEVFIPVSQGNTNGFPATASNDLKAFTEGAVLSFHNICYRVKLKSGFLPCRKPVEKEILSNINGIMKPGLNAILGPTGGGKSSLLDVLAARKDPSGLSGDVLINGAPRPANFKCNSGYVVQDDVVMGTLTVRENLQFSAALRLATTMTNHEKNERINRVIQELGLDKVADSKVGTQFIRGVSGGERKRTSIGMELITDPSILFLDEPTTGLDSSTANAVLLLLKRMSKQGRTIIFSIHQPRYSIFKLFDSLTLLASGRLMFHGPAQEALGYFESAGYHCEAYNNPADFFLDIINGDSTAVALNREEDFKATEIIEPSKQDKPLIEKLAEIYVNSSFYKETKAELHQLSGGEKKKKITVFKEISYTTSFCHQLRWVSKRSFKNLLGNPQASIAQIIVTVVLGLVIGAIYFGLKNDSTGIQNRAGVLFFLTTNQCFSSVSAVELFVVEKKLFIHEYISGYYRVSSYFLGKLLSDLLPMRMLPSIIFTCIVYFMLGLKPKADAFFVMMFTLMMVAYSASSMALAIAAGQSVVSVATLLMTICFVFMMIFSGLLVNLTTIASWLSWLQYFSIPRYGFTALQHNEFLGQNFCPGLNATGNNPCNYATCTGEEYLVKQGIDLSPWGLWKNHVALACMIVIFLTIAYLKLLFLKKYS

[2] = target: T1, Broad substrate specificity ATP-binding cassette transporter ABCG2; assay: Inhibition of ABCG2 (unknown origin) expressed in human K562 cells assessed as extrusion of Hoechst 33342 using Hoechst 33342 as substrate by flow cytometry; assay type: cell-based
[3] = target: T1, Broad substrate specificity ATP-binding cassette transporter ABCG2; assay: Inhibition of ABCG2 (unknown origin) expressed in human MCF7-VP cells mediated mitoxantrone efflux assessed as intracellular mitoxantrone level and measured after 45 mins by flow cytometry analysis; assay type: cell-based
[4] = target: T1, Broad substrate specificity ATP-binding cassette transporter ABCG2; assay: Inhibition of human ABCG2 expressed in dog MDCK-II-BCRP cells membrane vesicles mediated transport of 3[H]-methotrexate for 5 mins using [3H]-methotrexate as substrate by radiometric scintillation analysis; assay type: cell membranes, Membrane vesicle
[5] = target: T1, Broad substrate specificity ATP-binding cassette transporter ABCG2; assay: Inhibition of human ABCG2 expressing membrane vesicles assessed inhibition of BCRP- mediated transport of [3H]estrone 3-sulfate for 2 mins using [3H]-estrone sulfate as substrate by radiometric scintillation analysis; assay type: cell membranes, Membrane vesicle
[6] = target: T1, Broad substrate specificity ATP-binding cassette transporter ABCG2
Description: Inhibition of ABCG2 (unknown origin) expressed in human MCF7 cells membrane mediated [125I]iodoarylazidoprazosin photolabelling for 5 mins followed by UV light irradiation for 10 mins by radiometric scintillation analysis

[7] = target: T1, Broad substrate specificity ATP-binding cassette transporter ABCG2; assay: Inhibition of ABCG2 (unknown origin) expressed in human S1M180 cells mediated [3H]-mitoxantrone efflux assessed as intracellular [3H]-mitoxantrone level by flow cytometry; assay type: cell-based
[8] = target: T1, Broad substrate specificity ATP-binding cassette transporter ABCG2; assay: Inhibition of ABCG2 (unknown origin) expressed in human NCI-H460 cells mediated pheophorbide A efflux for 2 to 20 hr by fluorescence plate reader analysis; assay type: cell-based
[9] = target: T1, Broad substrate specificity ATP-binding cassette transporter ABCG2; conditions: saos-2
Description: Inhibition of ABCG2 (unknown origin) expressed in human SAOS-2 cells mediated Hoechst 33342 efflux preincubated with compound for 15 mins followed by substrate addition and measured after 45 mins using Hoechst 33342 as substrate by flow cytometry

[10] = target: T1, Broad substrate specificity ATP-binding cassette transporter ABCG2; assay: Inhibition of ABCG2 (unknown origin) expressed in human MCF7 cells membrane mediated [125I]iodoarylazidoprazosin photolabelling for 10 mins followed by UV light irradiation for 10 mins by radiometric scintillation analysis; assay type: cell membranes
[11] = target: T1, Broad substrate specificity ATP-binding cassette transporter ABCG2; assay: Inhibition of ABCG2 (unknown origin) expressed in human S1M180 cells assessed as intracellular accumulation of rhodamine 123 using rhodamine 123 as substrate by flow cytometry; assay type: cell-based
[12] = target: T1, Broad substrate specificity ATP-binding cassette transporter ABCG2; assay: Inhibition of ABCG2 (unknown origin) expressed in human HEK293 cells assessed as BODIPY-Prazosin uptake and measured after 2 hrs by FACScan flow cytometry analysis; assay type: cell-based

Compound: c1ccc2c(c1)OCO2
IC50 [1]: 940 nM

Compound: COc1cc(Nc2c(C#N)cnc3cc(OCCCN4CCN(C)CC4)c(OC)cc23)c(Cl)cc1Cl [BOSUTINIB]
IC50 [2]: 2000 nM

Compound: COc1cc(/C=C/C(=O)CC(=O)/C=C/c2ccc(O)c(OC)c2)ccc1O [CURCUMIN]
IC50 [3]: 1630 nM

Compound: CC1=NN(c2ccc(C)c(C)c2)C(=O)/C1=N\Nc1cccc(-c2cccc(C(=O)O)c2)c1O [ELTROMBOPAG]
IC50 [4]: 3100 nM

Compound: COc1cc(Nc2ncc(F)c(Nc3ccc4c(n3)N(COP(=O)(O)O)C(=O)C(C)(C)O4)n2)cc(OC)c1OC [FOSTAMATINIB]
IC50 [5]: 50 nM

Compound: CS(=O)(=O)CCNCc1ccc(-c2ccc3ncnc(Nc4ccc(OCc5cccc(F)c5)c(Cl)c4)c3c2)o1 [LAPATINIB]
IC50 [6]: 3200 nM

Compound: CNC(=O)c1cc(Oc2ccc(NC(=O)Nc3ccc(Cl)c(C(F)(F)F)c3)c(F)c2)ccn1 [REGORAFENIB]
IC50 [7]: 3000 nM

Compound: COc1cc2nccc(Oc3ccc(NC(=O)Nc4cc(C)on4)c(Cl)c3)c2cc1OC [TIVOZANIB]
IC50 [10]: 70 nM

Results, then the molecule that gave them:

IC50 [8]: 11800 nM
Compound: COC(=O)[C@H]1[C@H]2C[C@@H]3c4[nH]c5cc(OC)ccc5c4CCN3C[C@H]2C[C@@H](OC(=O)c2cc(OC)c(OC)c(OC)c2)[C@@H]1OC [RESERPINE]

IC50 [9]: 3100 nM
Compound: CNC(=O)c1cc(Oc2ccc(NC(=O)Nc3ccc(Cl)c(C(F)(F)F)c3)cc2)ccn1 [SORAFENIB]

IC50 [11]: 200 nM
Compound: COc1cc2c(Nc3ccc(Br)cc3F)ncnc2cc1OCC1CCN(C)CC1 [VANDETANIB]

IC50 [12]: 1400 nM
Compound: CS(=O)(=O)c1ccc(C(=O)Nc2ccc(Cl)c(-c3ccccn3)c2)c(Cl)c1 [VISMODEGIB]
